# Experimental data from article PMC11796366 (mBio, 2024).
# Target: T1, BumS (WT BumS-Myc-6XHis) (Campylobacter jejuni, UniProt Z9AJU0DEG1)
# T1 construct: gene CJJ81176_1484; second to penultimate codon, C-terminal Myc-6XHis tag kept (pBAD/Myc-HisA, pNR251), expressed in E. coli TOP10; cytoplasmic, N-terminal PAS domain (about residues 1-120)
# T1 sequence (Z9AJU0DEG1 2-403): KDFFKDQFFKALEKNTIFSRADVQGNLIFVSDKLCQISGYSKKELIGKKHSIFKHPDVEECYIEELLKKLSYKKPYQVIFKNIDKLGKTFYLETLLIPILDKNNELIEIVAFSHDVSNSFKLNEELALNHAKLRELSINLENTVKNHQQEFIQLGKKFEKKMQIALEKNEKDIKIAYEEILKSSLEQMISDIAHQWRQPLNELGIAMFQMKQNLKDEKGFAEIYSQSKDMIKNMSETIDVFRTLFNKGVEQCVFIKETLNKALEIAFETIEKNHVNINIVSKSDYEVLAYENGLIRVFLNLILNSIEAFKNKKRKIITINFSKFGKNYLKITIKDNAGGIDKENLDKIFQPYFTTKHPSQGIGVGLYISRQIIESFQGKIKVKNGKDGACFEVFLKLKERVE
# Test: CD thermal melt at […] nm
# Assay type: binding
# Conditions: […]; […] HEPES, […] NaSO4, […] glycerol; […]-95 °C
smiles,measurement,value
CC(C)C(=O)O [isobutyrate],"Tm,app",isobutyrate and isovalerate had a net destabilizing effect on the thermostability of BumS
